Measured values as given in patent US20230346864A1, “Compositions and Methods for Joint Health” (Innophos, LLC, priority 2020, published 2023).

Experiments:
PIIANP = experiment: CIA rats: serum PIIANP ELISA; assay type: in vivo, Rat; conditions: Methotrexate 0.5 mg/kg
Source text: (§1) Collagen induced arthritis (CIA) in rats was developed and utilized to evaluate efficacy of orally administered cashew skin extract for three weeks post disease induction. The study included seven groups of rats (n=9 rats/group). The rats were purpose bred male Sprague—Dawley rats (7-8 weeks old, Charles River Laboratories Inc., Wilmington, MA). Animals were acclimated for two weeks to achieve the required body weight before being assigned randomly to their respective group. Rats (3/cage) were housed in a polypropylene cage and individually identified by numbers on their tail. Individual cages were identified with a cage card indicating project number, test article, dose level, group, and animal number. […]
(§2) During the in-life period, arthritis severity index, paw thickness, ankle diameter and pain sensitivity were monitored. […] Urinary cartilage degradation marker (CTX-II), proinflammatory cytokines (TNF-α, IL-1β, and IL-6), cartilage synthesis marker (PIIANP) and matrix degrading proteases (MMP13) were measured.
ELISA Assay. The presence of PIIANP was measured using the Rat Procollagen Type IIA N-Prop (PIIANP) ELISA kit (MyBiosource, San Diego, California) as follows. […] After the addition of stop solution, the absorbance was read at 450 nm and the concentration of PIIANP calculated based on the absorbance readings of a PIIANP standard curve.

[1] = system: collagen-induced arthritis (CIA) model in rats; experiment: CIA rats: arthritis severity index; assay type: in vivo, Sprague—Dawley rats; conditions: Methotrexate 0.5 mg/kg; vehicle CIA rats day 10
Source text: (§3) Collagen induced arthritis (CIA) in rats was developed and utilized to evaluate efficacy of orally administered cashew skin extract for three weeks post disease induction. The study included seven groups of rats (n=9 rats/group). The rats were purpose bred male Sprague—Dawley rats (7-8 weeks old, Charles River Laboratories Inc., Wilmington, MA). Animals were acclimated for two weeks to achieve the required body weight before being assigned randomly to their respective group. Rats (3/cage) were housed in a polypropylene cage and individually identified by numbers on their tail. Individual cages were identified with a cage card indicating project number, test article, dose level, group, and animal number. Harlan Soft cob bedding (Envigo Tekland 7087, Envigo, Indianapolis, Indiana) was used and changed at least twice/week. Animals were provided with fresh water and rodent chow diet (Teklad 2018, Envigo, Indianapolis, Indiana) ad libitum and housed in a temperature-controlled room (22.2° C.) on a 12-h light-dark cycle throughout the study.
(§4) The study rats were randomized and administered one of seven study articles as noted in Table 4— […]
(§5) Rats were evaluated for arthritis index before injection of a booster dose. […]
(§6) During the in-life period, arthritis severity index, paw thickness, ankle diameter and pain sensitivity were monitored. […]

[2] = system: collagen-induced arthritis (CIA) model in rats; experiment: CIA rats: ankle diameter; assay type: in vivo, Sprague—Dawley rats; conditions: days 7 to 21; Methotrexate 0.5 mg/kg
Source text: as §3, §4, §5, §6

IL-1β = experiment: CIA rats: serum IL-1β ELISA; assay type: in vivo, Rat; conditions: Methotrexate 0.5 mg/kg
Source text: as §1
as §2, with “measured. […]” for “measured.”
ELISA Assay. The presence of cytokines IL-1β/IL-6/TNF-α was measured using the Rat IL-1β/IL-6/TNF-α Quantikine ELISA kit (R&D Systems, Minneapolis, Minnesota) as follows. […] After the addition of stop solution, the absorbance was read at 450 nm and the concentration of IL-1β/IL-6/TNF-α calculated based on the absorbance readings of an IL-1β/IL-6/TNF-α standard curve.

[3] = system: collagen-induced arthritis (CIA) model in rats; experiment: CIA rats: ankle joint histopathology (modified Mankin system); assay type: in vivo, Sprague—Dawley rats; conditions: Methotrexate 0.5 mg/kg
Source text: as §3
During the in-life period, arthritis severity index, paw thickness, ankle diameter and pain sensitivity were monitored. Urine and serum were collected at the end of study for biomarker analysis. Necropsy was carried out on day 22 for all the groups post priming. At necropsy, the ankle joint from each rat was collected for histopathology analysis. Urinary cartilage degradation marker (CTX-II), proinflammatory cytokines (TNF-α, IL-1β, and IL-6), cartilage synthesis marker (PIIANP) and matrix degrading proteases (MMP13) were measured.
Procedures and Evaluations. At necropsy, the ankle joint was carefully dissected out, fixed in 10% buffered formalin, and sent to Nationwide Histology (Veradale, WA, USA) for further histopathology analysis. The fixed specimens were then decalcified with Calci-Clear Rapid for one and a half days and embedded in paraffin. Standardized 5 μm serial sections were obtained from each rat and stained with hematoxylin and eosin (HE) and Safranin 0-fast green to enable evaluation of proteoglycan content. A modified Mankin system (Mankin et al., 1981) was used to score structural and cellular alterations of articular components as indications of disease progression and/or treatment efficacy. The histological analysis was conducted by a certified Pathologist at Nationwide Histology.

CTX-II = experiment: CIA rats: urine CTX-II ELISA; assay type: in vivo, Rat; conditions: Methotrexate 0.5 mg/kg
Source text: as §3
as §2, with “monitored. Urine and serum were collected at the end of study for biomarker analysis.” for “monitored.”
Assay. Rat urine samples were diluted 1:3 and the presence of CTX-II was measured using the Rat CTX-II ELISA kit from Mybiosource as follows. […] After the addition of stop solution, the absorbance was read at 450 nm, multiplied by dilution factor, and the concentration of CTX-II calculated based on the absorbance readings of a CTX-II standard curve.
Creatine—CTX-II amount was normalized to the amount of Creatinine in the urine using a Creatinine Parameter Assay Kit (R&D Systems) as follows. […] Absorbance was read at 492 nm, and Creatinine amount in urine was calculated based on the absorbance readings of a Creatinine standard curve. […]

[4] = system: collagen-induced arthritis (CIA) model in rats; experiment: CIA rats: paw thickness / paw edema; assay type: in vivo, Sprague—Dawley rats; conditions: day 7-day 21; Methotrexate 0.5 mg/kg; vs vehicle treated CIA
Source text: as §3, §4, §5, §6

[5] = system: collagen-induced arthritis (CIA) model in rats; experiment: CIA rats: pain sensitivity (Randall—Selitto probe); assay type: in vivo, Sprague—Dawley rats; conditions: Methotrexate 0.5 mg/kg; range over time points
Source text: as §3, §4, §5, §6

[6] = system: potato 5-Lipoxygenase enzyme; experiment: 5-LOX inhibition, Lipoxygenase Inhibitor Screening Assay Kit; assay type: biochemical; conditions: at 100 μM
Description: Cashew testa extract was tested for 5-LOX inhibition using the Lipoxygenase Inhibitor Screening Assay Kit (available from Cayman Chemical, Ann Arbor, Michigan, US) and potato 5-Lipoxygenase enzyme (available from Cayman Chemical). This kit measures hydroperoxides produced in the lipoxygenation reaction.
The extracts were dissolved in methanol to final working concentrations. 5-LOX enzyme, Chromagen, and Linoleic Acid solutions were prepared immediately before use. Nordihydroguaiaretic acid (‘NDGA’) was used as a positive control. 5-LOX enzyme was added to the test samples and controls and incubated for five minutes at room temperature to allow for enzyme/inhibitor interaction. Linoleic acid substrate was added to the plate to initiate the reaction, and the plate was then shaken at room temperature for 10 minutes. Chromagen was added to visualize the hydroperoxides formed during the reaction and the plate was shaken at room temperature for another five minutes. The absorbance was then read at 492 nm. Percent inhibition of the extract concentration was calculated in comparison to the uninhibited control wells.
Cashew testa extract was tested for its 5-LOX inhibition activity at 10 different concentrations (0.7, 1.5, 3.0, 6.0, 11.9, 15.6, 31.2, 62.5, 125.0 and 250.0 μg/mL).

| SMILES | increase in serum PIIANP compared to CIA+vehicle (PIIANP) | disease onset, day after priming [1] | reduction in ankle diameter, area under the curve [2] | reduction in serum level of IL-1β vs CIA rats treated with vehicle (IL-1β) | GAG loss, lower than vehicle [3] | bone erosion, lower than vehicle [3] | cartilage destruction, lower than vehicle [3] | inflammation, lower than vehicle [3] | urine CTX-II, cartilage protection vs vehicle treated CIA rats (CTX-II; normalized with creatinine) | urine CTX-II, cartilage protection vs vehicle treated CIA rats (CTX-II; normalized with protein) | urine CTX-II, cartilage protection vs vehicle treated CIA rats (CTX-II; raw data) | reduction in paw edema, area under the swelling curve [4] | pain tolerance vs Vehicle treated CIA [5] | 5-LOX enzyme inhibition [6] |
| --- | --- | --- | --- | --- | --- | --- | --- | --- | --- | --- | --- | --- | --- | --- |
| CN(Cc1cnc2nc(N)nc(N)c2n1)c1ccc(C(=O)N[C@@H](CCC(=O)O)C(=O)O)cc1 [MTX, Methotrexate] | 41% | 14 | 89.1% | 86.4% | 50.7% | 71.2% | 50.7% | 55.8% | 27.2% | 22.9% | up to 53.8% | 90.2% | 14.1-67.1% | – |
| CC(Cc1ccc(O)c(O)c1)C(C)Cc1ccc(O)c(O)c1 (centres unmarked) [NDGA, Nordihydroguaiaretic acid] | – | – | – | – | – | – | – | – | – | – | – | – | – | 100% |
